Laboratory results published in patent US20110009421A1, “COMPOUND HAVING 6-MEMBERED AROMATIC RING” (TAKEDA PHARMACEUTICAL COMPANY LIMITED, priority 2008, published 2011).
Structures can show the parent of a compound that is named as a salt.

Target: T1, human GPR52 (Homo sapiens, UniProt Q9Y2T5)
T1 construct: expressed in transfected cells; host or cells: CHO (dhfr-) cells
Assay: Increased intracellular cAMP levels in human GPR52 expression CHO cells (AlphaScreen cAMP assay)
Assay type: cell-based
Conditions: 1 μM test compound, 30 min at 37° C., human GPR52 expression CHO (dhfr−) cells; intracellular cAMP level, 100% = 1 μM 3-(6-(2-(3,4-dimethoxyphenyl)ethoxy)pyridin-2-yl)-N-(2-pyrrolidin-1-ylethyl)benzamide, 0% = DMSO
Procedure: Increased Intracellular cAMP Levels in Human GPR52 Expression CHO Cells
1×10^4 human GPR52 expression CHO (dhfr−) cells were incubated with 1 μM test compound for 30 min at 37° C. in 30 μL assay buffer (HBSS (containing Ca^2+ and Mg^2+), 0.5% BSA, 100 μM IBMX, 100 μM Ro 20-1724, 5 mM HEPES (pH 7.55)) using an OptiPlate-384 (by PerkinElmer). The intracellular cAMP level was then assayed with an EnVision (by PerkinElmer) according to the protocol of the AlphaScreen cAMP Assay Kit (by PerkinElmer). The GPR52 agonist activity was calculated, assuming the intracellular cAMP level to be 100% in the presence of 1 μM of 3-(6-(2-(3,4-dimethoxyphenyl)ethoxy)pyridin-2-yl)-N-(2-pyrrolidin-1-ylethyl)benzamide obtained in Reference Example 39 and assuming the intracellular cAMP level to be 0% when DMSO was added instead of test compound.

T1 sequence (Q9Y2T5 whole entry): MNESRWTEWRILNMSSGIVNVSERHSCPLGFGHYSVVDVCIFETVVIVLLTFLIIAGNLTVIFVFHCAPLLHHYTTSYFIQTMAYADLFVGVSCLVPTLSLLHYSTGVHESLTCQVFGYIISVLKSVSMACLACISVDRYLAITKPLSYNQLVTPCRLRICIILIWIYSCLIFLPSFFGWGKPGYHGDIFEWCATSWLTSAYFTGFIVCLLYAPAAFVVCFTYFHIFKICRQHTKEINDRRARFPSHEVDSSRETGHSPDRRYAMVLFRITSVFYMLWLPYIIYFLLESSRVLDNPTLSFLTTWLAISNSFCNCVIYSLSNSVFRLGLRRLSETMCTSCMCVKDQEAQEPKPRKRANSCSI

| Compound | GPR52 agonist activity (%) |
| --- | --- |
| COc1ccc(CCOc2cc(-c3cccc(C(=O)NCCN4CCCC4)c3)ccn2)cc1OC [Working Example 42, 3-(2-(2-(3,4-Dimethoxyphenyl)ethoxy)pyridin-4-yl)-N-(2-pyrrolidin-1-ylethyl)benzamide] | 71% |
| O=C(NCCO)c1cccc(-c2cccc(Oc3cc(Cl)cc(Cl)c3)n2)c1 [Working Example 87, 3-(6-(3,5-dichlorophenoxy)pyridin-2-yl)-N-(2-hydroxyethyl)benzamide] | 79% |
| COc1ccc(CCOc2cccc(-c3cccc(C(=O)NCCN4CCCC4)c3)c2)cc1OC [Working Example 40, 3′-(2-(3,4-Dimethoxyphenyl)ethoxy)-N-(2-pyrrolidin-1-ylethyl)biphenyl-3-carboxamide] | 87% |
| COc1ccc(CCNc2nccc(-c3cccc(NC(=O)CCCN4CCCC4)c3)n2)cc1OC [Working Example 19] | 85% |
| COc1ccc(CCNc2nccc(-c3cccc(NC(=O)CC4CCCN4C)c3)n2)cc1OC (stereo not shown) [Working Example 28, N-(3-(2-((2-(3,4-dimethoxyphenyl)ethyl)amino)pyrimidin-4-yl)phenyl)-2-(1-methylpyrrolidin-2-yl)acetamide hydrochloride] | 74% |
| COc1ccc(CCOc2cccc(-c3cccc(NC(=O)NCCN(C)C)c3)n2)cc1OC [Working Example 53] | 113% |
| O=C(NCCN1CCCC1)c1cccc(-c2cccc(Oc3ccc(Cl)c(Cl)c3)n2)c1 [Working Example 82, 3-(6-(3,4-Dichlorophenoxy)pyridin-2-yl)-N-(2-pyrrolidin-1-ylethyl)benzamide] | 64% |
| COc1cccc(CCOc2cccc(-c3cccc(C(=O)NCCO)c3)n2)c1 [Working Example 69, N-(2-hydroxyethyl)-3-(6-(2-(3-methoxyphenyl)ethoxy)pyridin-2-yl)benzamide] | 65% |
| COc1cccc(CCOc2cccc(-c3cccc(C(=O)Nc4ccccn4)c3)n2)c1 [Working Example 76, 3-(6-(2-(3-Methoxyphenyl)ethoxy)pyridin-2-yl)-N-pyridin-2-ylbenzamide] | 52% |
| O=C(NCCN1CCCC1)c1cccc(-c2cccc(Oc3cccc(Cl)c3Cl)n2)c1 [Working Example 83, 3-(6-(2,3-Dichlorophenoxy)pyridin-2-yl)-N-(2-pyrrolidin-1-ylethyl)benzamide] | 97% |
| Cc1cccc(CCOc2cccc(-c3cccc(C(=O)NCCO)c3)n2)c1 [Working Example 59, N-(2-Hydroxyethyl)-3-(6-(2-(3-methylphenyl)ethoxy)pyridin-2-yl)benzamide] | 84% |
| COc1ccc(CCOc2ccnc(-c3cccc(C(=O)NCCN4CCCC4)c3)n2)cc1OC [Working Example 45, 3-(4-(2-(3,4-Dimethoxyphenyl)ethoxy)pyrimidin-2-yl)-N-(2-pyrrolidin-1-ylethyl)benzamide] | 85% |
| COc1ccc(CCNc2nccc(-c3cccc(NC(=O)C4CCNCC4)c3)n2)cc1OC [Working Example 22, N-(3-(2-((2-(3,4-dimethoxyphenyl)ethyl)amino)pyrimidin-4-yl)phenyl)piperidine-4-carboxamide hydrochloride] | 80% |
| COc1ccc(CCOc2cccc(-c3cccc(C(=O)NC4CCOCC4)c3)n2)cc1OC [Working Example 41, 3-(6-(2-(3,4-Dimethoxyphenyl)ethoxy)pyridin-2-yl)-N-(tetrahydro-2H-pyran-4-yl)benzamide] | 56% |
| COc1ccc(CCNc2nccc(-c3cccc(NC(C)=O)c3)n2)cc1OC [Working Example 1, N-(3-(2-(2-(3,4-dimethoxyphenyl)ethylamino)pyrimidin-4-yl)phenyl)acetamide] | 69% |
| O=C(NCCCO)c1cccc(-c2cccc(Oc3cc(Cl)cc(Cl)c3)n2)c1 [Working Example 88, 3-(6-(3,5-Dichlorophenoxy)pyridin-2-yl)-N-(3-hydroxypropyl)benzamide] | 62% |
| COc1cccc(C(=O)Nc2cccc(-c3ccnc(NCCc4ccc(OC)c(OC)c4)n3)c2)c1 [Working Example 12, N-(3-(2-(2-(3,4-dimethoxyphenyl)ethylamino)pyrimidin-4-yl)phenyl)-3-methoxybenzamide] | 47% |
| O=C(Nc1nccs1)c1cccc(-c2cccc(OCCc3cccc(F)c3)n2)c1 [Working Example 61, 3-(6-(2-(3-Fluorophenyl)ethoxy)pyridin-2-yl)-N-1,3-thiazol-2-ylbenzamide] | 43% |

Now from value to compound:

| GPR52 agonist activity (%) | Compound |
| --- | --- |
| 109% | COc1cc(CCNc2nccc(-c3cccc(C(=O)NCCN4CCCC4)c3)n2)ccc1F [Working Example 166] |
| 110% | COc1ccc(CCOc2cccc(-c3cccc(C(=O)NCCC(N)=O)c3)n2)cc1OC [Working Example 175] |
| 104% | COc1ccccc1CCNc1nccc(-c2cccc(C(=O)NCCN3CCCC3)c2)n1 [Working Example 138] |
| 68% | O=C(NCCN1CCCC1)c1cccc(-c2ccnc(NCCc3ccc(Cl)c(F)c3)n2)c1 [Working Example 165] |
| 113% | COc1ccc(CCNc2nccc(-c3cccc(C(=O)NCCN4CCCC4)c3)n2)cc1OC [Working Example 141] |
| 65% | COc1ccc(CCOc2cccc(-c3cccc(C(=O)Nc4ccc5ncccc5c4)c3)n2)cc1OC [Working Example 227] |
| 57% | COc1ccc(CCOc2cccc(-c3cccc(NC(=O)Cn4ccnc4)c3)n2)cc1OC [Working Example 302] |
| 67% | COc1ccc(CCOc2cccc(-c3cccc(C(=O)NCCNc4ccccc4)c3)n2)cc1OC [Working Example 208] |
| 97% | COc1ccc(CCOc2cccc(-c3cccc(C(=O)NCCCn4ccnc4)c3)n2)cc1OC [Working Example 203] |
| 53% | O=C(NCCO)c1cccc(-c2cccc(Sc3ccc(Cl)cc3Cl)n2)c1 [Working Example 101, 3-(6-((2,4-dichlorophenyl)thio)pyridin-2-yl)-N-(2-hydroxyethyl)benzamide] |
| 135% | O=C(NCCN1CCCC1)c1cccc(-c2ccnc(NCCc3cccc(C(F)(F)F)c3)n2)c1 [Working Example 146, N-(2-pyrrolidin-1-ylethyl)-3-[2-({2-[3-(trifluoromethyl)phenyl]ethyl}amino)pyrimidin-4-yl]benzamide] |
| 58% | COc1ccc(CCOc2cccc(-c3cccc(NC(=O)[C@@H]4CSC(=O)N4)c3)n2)cc1OC [Working Example 245] |
| 58% | C[C@H](CC#N)NC(=O)c1cccc(-c2cccc(Oc3cc(Cl)cc(Cl)c3)n2)c1 [Working Example 94, N-((1R)-2-Cyano-1-methylethyl)-3-(6-(3,5-dichlorophenoxy)pyridin-2-yl)benzamide] |
| 68% | CNC(=O)c1cccc(-c2cccc(OCCc3ccc(OC)c(OC)c3)n2)c1 [Working Example 167] |
| 66% | C[S+]([O-])CCNC(=O)c1cccc(-c2cccc(Oc3cc(Cl)cc(Cl)c3)n2)c1 (stereo not shown) [Working Example 96, 3-(6-(3,5-dichlorophenoxy)pyridin-2-yl)-N-(2-(methylsulfinyl)ethyl)benzamide] |
| 55% | N#CCCNC(=O)c1cccc(-c2cccc(Oc3cccc(Cl)c3)n2)c1 [Working Example 125, 3-(6-(3-Chlorophenoxy)pyridin-2-yl)-N-(2-cyanoethyl)benzamide] |
| 79% | COc1ccc(CCOc2cccc(-c3cccc(C(=O)NCCCO)c3)n2)cc1OC [Working Example 170] |
| 89% | COc1ccc(CCNc2nccc(-n3ccc4cc(C(=O)NCCN(C)C)ccc43)n2)cc1OC [Working Example 102, 1-(2-((2-(3,4-Dimethoxyphenyl)ethyl)amino)pyrimidin-4-yl)-N-(2-(dimethylamino)ethyl)-1H-indole-5-carboxamide] |
| 107% | O=C(NCCN1CCCC1)c1cccc(-c2ccnc(NCCc3ccc(F)c(Cl)c3)n2)c1 [Working Example 164] |
| 64% | O=C(NCCN1CCCC1)c1cccc(-c2ccnc(NCCc3cccs3)n2)c1 [Working Example 152] |
| 51% | N#CCCNC(=O)c1cccc(-c2cccc(Oc3cc(Cl)cc(Cl)c3)n2)c1 [Working Example 121, N-(2-Cyanoethyl)-3-(6-(3,5-dichlorophenoxy)pyridin-2-yl)benzamide] |
| 72% | O=C(NCCN1CCCC1)c1cccc(-c2ccnc(NCCc3cccc(F)c3)n2)c1 [Working Example 143] |
| 48% | N#CCCNC(=O)c1cccc(-c2cccc(Oc3cncc(Cl)c3)n2)c1 [Working Example 134, 3-(6-((5-Chloropyridin-3-yl)oxy)pyridin-2-yl)-N-(2-cyanoethyl)benzamide] |
| 82% | COc1ccc(CCOc2cccc(-c3cccc(NC(=O)CC4NCCc5ccccc54)c3)n2)cc1OC (stereo not shown) [Working Example 318] |
| 85% | COc1ccc(CCOc2cccc(-c3cccc(C(=O)NCCc4ccncc4)c3)n2)cc1OC [Working Example 201] |
